Data reported in publication PMC3914206.

Assays:
Type in all cases: binding
Set-up in all cases: KINOMEscan: ABL1(F317L)-phosphorylated / KINOMEscan: ABL1(H396P)-nonphosphorylated / KINOMEscan: ABL1(H396P)-phosphorylated / KINOMEscan: ABL1(M351T)-phosphorylated / KINOMEscan: ABL1(T315I)-phosphorylated / KINOMEscan: ABL1-nonphosphorylated / KINOMEscan: ABL1-phosphorylated / KINOMEscan: ACVR2A / KINOMEscan: ACVR2B / KINOMEscan: ADCK3 / KINOMEscan: ADCK4 / KINOMEscan: AKT1 / KINOMEscan: AKT3 / KINOMEscan: ALK / KINOMEscan: ARK5 / KINOMEscan: AURKA / KINOMEscan: AURKC / KINOMEscan: BIKE / KINOMEscan: BMPR1A / KINOMEscan: BMPR1B / KINOMEscan: BMX / KINOMEscan: BRK / KINOMEscan: BRSK1 / KINOMEscan: BRSK2 / KINOMEscan: CAMK1 / KINOMEscan: CAMK1D / KINOMEscan: CAMK1G / KINOMEscan: CAMK2A / KINOMEscan: CAMK2B / KINOMEscan: AAK1 / KINOMEscan: CAMK2D / KINOMEscan: CAMK2G / KINOMEscan: ABL1(F317I)-nonphosphorylated / KINOMEscan: ABL1(F317I)-phosphorylated / KINOMEscan: ABL1(F317L)-nonphosphorylated: unit: % Ctrl
Details in all cases: Compound Concentration 10 µM
panel of 442 kinases [1] = target: T1, panel of 442 kinases (Homo sapiens, UniProt P00533, L858R)
T1 construct: purchased KINOMEscan
T1 sequence (P00533 25-1210 L858R): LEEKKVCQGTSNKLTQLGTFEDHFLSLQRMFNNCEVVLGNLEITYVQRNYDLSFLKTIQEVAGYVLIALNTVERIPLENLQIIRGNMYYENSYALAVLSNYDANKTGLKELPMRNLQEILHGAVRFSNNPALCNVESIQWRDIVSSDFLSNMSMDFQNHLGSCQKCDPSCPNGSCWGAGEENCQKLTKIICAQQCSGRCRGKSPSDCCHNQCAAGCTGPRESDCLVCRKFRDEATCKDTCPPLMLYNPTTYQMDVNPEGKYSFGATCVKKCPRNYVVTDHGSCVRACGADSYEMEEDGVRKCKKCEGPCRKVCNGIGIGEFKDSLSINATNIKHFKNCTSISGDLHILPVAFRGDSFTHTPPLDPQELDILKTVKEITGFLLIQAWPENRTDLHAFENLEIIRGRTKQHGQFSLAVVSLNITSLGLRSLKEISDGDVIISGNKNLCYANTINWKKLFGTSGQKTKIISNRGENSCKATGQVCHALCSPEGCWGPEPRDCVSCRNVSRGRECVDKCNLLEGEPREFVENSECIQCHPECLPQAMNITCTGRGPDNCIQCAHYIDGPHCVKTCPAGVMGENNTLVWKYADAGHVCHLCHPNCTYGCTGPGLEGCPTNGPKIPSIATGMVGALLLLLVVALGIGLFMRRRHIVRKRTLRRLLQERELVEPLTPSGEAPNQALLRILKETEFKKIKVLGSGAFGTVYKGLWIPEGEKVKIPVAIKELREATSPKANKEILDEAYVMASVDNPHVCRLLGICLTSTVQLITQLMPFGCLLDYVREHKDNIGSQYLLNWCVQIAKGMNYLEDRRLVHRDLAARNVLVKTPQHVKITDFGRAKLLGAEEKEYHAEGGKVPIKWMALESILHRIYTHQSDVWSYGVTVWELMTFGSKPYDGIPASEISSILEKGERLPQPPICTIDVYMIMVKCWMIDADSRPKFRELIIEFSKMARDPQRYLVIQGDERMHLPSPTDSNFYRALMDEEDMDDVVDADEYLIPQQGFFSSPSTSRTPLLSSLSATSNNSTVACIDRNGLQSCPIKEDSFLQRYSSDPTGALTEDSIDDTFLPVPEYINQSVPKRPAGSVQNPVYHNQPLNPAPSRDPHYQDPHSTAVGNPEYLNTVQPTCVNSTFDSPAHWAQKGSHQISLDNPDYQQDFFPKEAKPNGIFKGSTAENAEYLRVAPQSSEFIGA
Excerpt: (§1) We assessed the selectivity of members of this scaffold using the KINOMEscan methodology across a near comprehensive panel of 442 kinases [[18,27]].

panel of 442 kinases [2] = target: T2, panel of 442 kinases (Homo sapiens, UniProt Q15746)
T2 construct: purchased KINOMEscan
T2 sequence (Q15746 whole entry): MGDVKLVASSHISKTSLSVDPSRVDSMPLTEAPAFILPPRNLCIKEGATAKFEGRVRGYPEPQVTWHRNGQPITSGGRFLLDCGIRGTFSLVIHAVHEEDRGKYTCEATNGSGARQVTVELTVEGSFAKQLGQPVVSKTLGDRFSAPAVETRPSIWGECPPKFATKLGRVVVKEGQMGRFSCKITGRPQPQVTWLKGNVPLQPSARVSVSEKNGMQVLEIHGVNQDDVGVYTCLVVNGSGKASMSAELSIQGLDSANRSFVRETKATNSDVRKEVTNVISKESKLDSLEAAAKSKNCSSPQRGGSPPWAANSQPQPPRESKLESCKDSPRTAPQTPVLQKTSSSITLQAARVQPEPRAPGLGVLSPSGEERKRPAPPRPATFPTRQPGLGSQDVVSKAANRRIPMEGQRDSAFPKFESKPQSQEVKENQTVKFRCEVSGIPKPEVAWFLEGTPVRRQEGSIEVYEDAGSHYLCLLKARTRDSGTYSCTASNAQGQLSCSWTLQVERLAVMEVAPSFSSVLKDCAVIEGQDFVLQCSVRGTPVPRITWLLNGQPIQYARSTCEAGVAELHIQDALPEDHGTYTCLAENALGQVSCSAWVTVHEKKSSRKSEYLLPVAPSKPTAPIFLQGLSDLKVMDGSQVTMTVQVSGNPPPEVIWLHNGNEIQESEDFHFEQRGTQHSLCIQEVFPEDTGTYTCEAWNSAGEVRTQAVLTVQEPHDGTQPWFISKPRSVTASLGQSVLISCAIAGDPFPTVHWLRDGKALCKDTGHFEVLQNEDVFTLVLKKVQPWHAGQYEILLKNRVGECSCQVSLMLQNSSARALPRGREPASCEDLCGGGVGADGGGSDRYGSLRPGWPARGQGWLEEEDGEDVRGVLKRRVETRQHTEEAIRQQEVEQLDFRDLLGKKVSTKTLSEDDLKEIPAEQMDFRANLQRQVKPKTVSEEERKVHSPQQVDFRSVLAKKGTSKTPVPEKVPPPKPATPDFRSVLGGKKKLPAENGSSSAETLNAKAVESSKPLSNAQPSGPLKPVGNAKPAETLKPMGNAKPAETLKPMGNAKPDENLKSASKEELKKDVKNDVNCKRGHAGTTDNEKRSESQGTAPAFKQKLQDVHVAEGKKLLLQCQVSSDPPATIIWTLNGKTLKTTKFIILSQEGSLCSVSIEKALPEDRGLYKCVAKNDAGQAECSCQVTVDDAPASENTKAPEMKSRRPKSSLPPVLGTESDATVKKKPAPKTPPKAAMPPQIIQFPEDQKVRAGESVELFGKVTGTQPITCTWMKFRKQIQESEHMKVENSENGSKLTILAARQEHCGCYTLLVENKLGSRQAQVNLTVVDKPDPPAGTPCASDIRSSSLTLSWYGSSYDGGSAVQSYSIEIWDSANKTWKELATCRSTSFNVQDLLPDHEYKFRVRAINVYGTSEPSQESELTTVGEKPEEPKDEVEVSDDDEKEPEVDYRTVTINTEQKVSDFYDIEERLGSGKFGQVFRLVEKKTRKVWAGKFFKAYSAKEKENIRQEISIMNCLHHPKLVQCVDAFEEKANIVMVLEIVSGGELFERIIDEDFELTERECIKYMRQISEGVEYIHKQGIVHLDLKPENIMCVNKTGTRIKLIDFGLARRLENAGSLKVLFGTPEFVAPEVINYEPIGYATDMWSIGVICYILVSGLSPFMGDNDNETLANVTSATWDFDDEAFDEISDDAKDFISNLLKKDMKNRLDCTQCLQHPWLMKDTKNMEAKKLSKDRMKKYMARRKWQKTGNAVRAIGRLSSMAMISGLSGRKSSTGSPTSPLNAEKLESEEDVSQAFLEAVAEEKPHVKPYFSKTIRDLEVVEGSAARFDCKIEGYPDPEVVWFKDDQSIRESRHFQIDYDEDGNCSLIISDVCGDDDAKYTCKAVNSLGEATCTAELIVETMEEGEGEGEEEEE
Excerpt: as §1

panel of 442 kinases [3] = target: T3, panel of 442 kinases (Homo sapiens, UniProt Q9BUB5)
T3 construct: purchased KINOMEscan
T3 sequence (Q9BUB5 whole entry): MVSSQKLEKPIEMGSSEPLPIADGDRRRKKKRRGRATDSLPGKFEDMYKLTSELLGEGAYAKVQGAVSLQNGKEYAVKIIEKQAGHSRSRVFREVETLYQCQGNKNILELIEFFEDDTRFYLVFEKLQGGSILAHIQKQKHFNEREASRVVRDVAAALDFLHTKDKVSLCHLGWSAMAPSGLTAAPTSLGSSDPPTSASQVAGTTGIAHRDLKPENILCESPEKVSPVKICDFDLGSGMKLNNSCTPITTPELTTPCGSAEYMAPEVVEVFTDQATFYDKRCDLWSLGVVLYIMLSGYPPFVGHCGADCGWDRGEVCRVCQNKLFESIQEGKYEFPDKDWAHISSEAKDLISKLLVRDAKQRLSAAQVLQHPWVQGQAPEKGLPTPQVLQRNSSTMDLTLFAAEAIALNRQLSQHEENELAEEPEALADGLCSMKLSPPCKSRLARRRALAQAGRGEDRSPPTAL
Excerpt: as §1

panel of 442 kinases [4] = target: T4, panel of 442 kinases (Homo sapiens, UniProt Q9NSY1)
T4 construct: purchased KINOMEscan
T4 sequence (Q9NSY1 whole entry): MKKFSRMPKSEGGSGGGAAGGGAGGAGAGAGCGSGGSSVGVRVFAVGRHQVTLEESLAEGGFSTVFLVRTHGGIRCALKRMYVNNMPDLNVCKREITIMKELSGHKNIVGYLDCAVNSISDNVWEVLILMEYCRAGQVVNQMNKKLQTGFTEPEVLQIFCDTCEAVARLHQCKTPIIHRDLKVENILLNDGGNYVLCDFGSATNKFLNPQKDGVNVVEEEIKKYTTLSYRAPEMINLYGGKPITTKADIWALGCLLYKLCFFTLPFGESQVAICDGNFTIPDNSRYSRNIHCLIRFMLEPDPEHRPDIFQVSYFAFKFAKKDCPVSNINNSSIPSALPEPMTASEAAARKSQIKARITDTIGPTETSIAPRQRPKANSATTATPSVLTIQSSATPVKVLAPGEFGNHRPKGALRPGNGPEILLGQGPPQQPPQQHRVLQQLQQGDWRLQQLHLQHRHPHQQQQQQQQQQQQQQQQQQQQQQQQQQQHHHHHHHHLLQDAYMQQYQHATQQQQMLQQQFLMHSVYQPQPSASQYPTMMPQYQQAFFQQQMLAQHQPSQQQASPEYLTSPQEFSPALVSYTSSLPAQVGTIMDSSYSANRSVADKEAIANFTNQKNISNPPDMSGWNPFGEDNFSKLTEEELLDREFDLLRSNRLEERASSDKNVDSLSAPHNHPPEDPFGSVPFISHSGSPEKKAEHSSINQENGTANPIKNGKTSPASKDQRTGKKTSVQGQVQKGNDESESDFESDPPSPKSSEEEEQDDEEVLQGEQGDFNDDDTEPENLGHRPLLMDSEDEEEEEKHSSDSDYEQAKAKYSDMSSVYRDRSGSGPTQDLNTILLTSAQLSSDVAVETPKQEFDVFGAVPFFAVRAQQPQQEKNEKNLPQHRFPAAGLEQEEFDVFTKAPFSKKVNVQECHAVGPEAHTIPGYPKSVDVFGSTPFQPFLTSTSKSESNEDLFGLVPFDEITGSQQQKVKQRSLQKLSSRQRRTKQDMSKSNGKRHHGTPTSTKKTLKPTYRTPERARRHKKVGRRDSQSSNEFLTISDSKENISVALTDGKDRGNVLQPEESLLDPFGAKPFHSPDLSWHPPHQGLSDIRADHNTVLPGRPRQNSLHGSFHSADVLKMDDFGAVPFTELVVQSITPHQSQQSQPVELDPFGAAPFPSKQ
Excerpt: as §1

SMILES	KINOMEscan: EGFR(L858R) (panel of 442 kinases [1])	KINOMEscan: MYLK (panel of 442 kinases [2])	KINOMEscan: MKNK1 (panel of 442 kinases [3])	KINOMEscan: BIKE (panel of 442 kinases [4])
COc1cc(C(=O)N2CCC(N3CCN(C)CC3)CC2)ccc1Nc1ncc2c(n1)N(C)c1ccccc1C(=O)N2C [15 (LRRK2-IN-1)]	79	8.7	50	100
COc1cc(C(=O)N2CCC(N3CCN(C)CC3)CC2)ccc1Nc1ncc2c(n1)N1CCc3cccc(c31)C(=O)N2C [Compound 24]	62	2.9	–	73
COc1cc(C(=O)N2CCC(N3CCN(C)CC3)CC2)ccc1Nc1ncc2c(n1)N(C1CCCC1)c1ccccc1C(=O)N2C [Compound 25, 11-cyclopentyl-2-((2-methoxy-4-(4-(4-methylpiperazin-1-yl)piperidine-1-carbonyl)phenyl)amino)-5-methyl-5H-benzo[e]pyrimido[5,4-b][1,4]diazepin-6(11H)-one]	83	73	100	93
CCOc1cc(C(=O)N2CCC(N3CCN(C)CC3)CC2)ccc1Nc1ncc2c(n1)N(C1CCCC1)c1ccccc1C(=O)N2C [Compound 26]	100	98	96	100
